Source: publication PMC9505067, “Synthesis of Hydantoin Androgen Receptor Antagonists and Study on Their Antagonistic Activity” (Molecules, 2022)
Like-named read-outs stand apart in the source and are kept apart here.

What was measured:
[1] = target: T1, androgen receptor (AR) (Homo sapiens, UniProt P10275); assay: AR antagonist luciferase gene reporter assay (AR plasmid pSVAR0 + MMTV-Luc, DHT at EC80)
T1 sequence (P10275 1-920): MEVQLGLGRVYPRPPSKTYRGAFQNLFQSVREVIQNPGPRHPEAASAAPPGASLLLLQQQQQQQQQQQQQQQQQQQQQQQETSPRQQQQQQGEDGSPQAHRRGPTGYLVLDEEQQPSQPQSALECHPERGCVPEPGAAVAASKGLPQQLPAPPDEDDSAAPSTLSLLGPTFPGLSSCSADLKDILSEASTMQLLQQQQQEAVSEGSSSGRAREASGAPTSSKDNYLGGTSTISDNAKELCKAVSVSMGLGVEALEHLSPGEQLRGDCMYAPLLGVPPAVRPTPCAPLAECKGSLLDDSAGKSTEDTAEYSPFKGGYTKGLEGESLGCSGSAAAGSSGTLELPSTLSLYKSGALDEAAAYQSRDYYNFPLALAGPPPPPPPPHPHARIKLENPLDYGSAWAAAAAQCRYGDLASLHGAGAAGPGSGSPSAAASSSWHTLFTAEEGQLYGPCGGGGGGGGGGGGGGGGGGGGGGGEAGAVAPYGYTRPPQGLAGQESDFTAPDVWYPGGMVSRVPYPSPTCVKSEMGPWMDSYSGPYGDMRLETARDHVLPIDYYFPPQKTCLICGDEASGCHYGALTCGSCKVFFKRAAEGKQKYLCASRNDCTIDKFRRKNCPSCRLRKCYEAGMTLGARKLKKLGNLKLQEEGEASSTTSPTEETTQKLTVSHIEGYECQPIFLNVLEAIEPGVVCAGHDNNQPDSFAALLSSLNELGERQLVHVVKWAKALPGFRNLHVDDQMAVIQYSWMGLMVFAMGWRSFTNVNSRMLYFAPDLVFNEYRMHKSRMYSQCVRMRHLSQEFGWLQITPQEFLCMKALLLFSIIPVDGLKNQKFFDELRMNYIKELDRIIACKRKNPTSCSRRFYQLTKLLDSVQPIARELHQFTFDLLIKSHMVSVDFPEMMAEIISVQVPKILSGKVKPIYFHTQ

[2] = Antagonist Activity in CV-1 IC50, luciferase reporter in AR-transfected cells, DHT at EC80, 24 h incubation, means ± SD of three independent experiments
[3] = luciferase reporter in AR-transfected cells, DHT at EC80, 24 h, enzalutamide = 100, means ± SD of three independent experiments

IC50 [1] [nM]	Antagonist Activity in CV-1 Efficacy [1, 3] [%]	SMILES	melting point [°C]	Antagonist Activity in CV-1 Efficacy [1] [%]	IC50 [1, 2] [nM]
		CC1(CO)C(=O)N(c2ccc(C#N)c(C(F)(F)F)c2)C(=S)N1c1ccc(O)cc1 (stereo not drawn) [11a, 4-(4-(hydroxymethyl)-3-(4-hydroxyphenyl)-4-methyl-5-oxo-2-thioxoimidazolidin-1-yl)-2-(trifluoromethyl)benzonitrile]	203 to 205	90 ± 7.5	3640 ± 932
		COc1ccc(N2C(=O)N(c3ccc(C#N)c(C(F)(F)F)c3)C(=O)C2(C)CO)cc1 (stereo not drawn) [7f, 4-(4-(hydroxymethyl)-3-(4-methoxyphenyl)-4-methyl-2,5-dioxoimidazolidin-1-yl)-2-(trifluoromethyl)benzonitrile]	128 to 130	90 ± 13.3	416 ± 230
		CC1(CO)C(=O)N(c2ccc(C#N)c(C(F)(F)F)c2)C(=S)N1c1ccc(C(F)(F)F)cc1 (stereo not drawn) [6i, 4-(4-(hydroxymethyl)-4-methyl-5-oxo-2-thioxo-3-(4-(trifluoromethyl)phenyl)imidazolidin-1-yl)-2-(trifluoromethyl)benzonitrile]	178 to 180	102 ± 8.9	68.2 ± 4.6
		CNC(=O)c1ccc(N2C(=S)N(c3ccc(C#N)c(C(F)(F)F)c3)C(=O)C2(C)CO)cc1F (stereo not drawn) [6k, 4-(3-(4-cyano-3-(trifluoromethyl)phenyl)-5-(hydroxymethyl)-5-methyl-4-oxo-2-thioxoimidazolidin-1-yl)-2-fluoro-N-methylbenzamide]		88 ± 3.5	126
		CC1(CO)C(=O)N(c2ccc(C#N)c(C(F)(F)F)c2)C(=S)N1c1ccc(Br)cc1 (stereo not drawn) [6e, 4-(3-(4-bromophenyl)-4-(hydroxymethyl)-4-methyl-5-oxo-2-thioxoimidazolidin-1-yl)-2-(trifluoromethyl)benzonitrile]	206 to 208	86 ± 6.5	117 ± 16.3
		COC(=O)c1ccc(N2C(=S)N(c3ccc(C#N)c(C(F)(F)F)c3)C(=O)C2(C)CO)cc1 (stereo not drawn) [6j, methyl 4-(3-(4-cyano-3-(trifluoromethyl)phenyl)-5-(hydroxymethyl)-5-methyl-4-oxo-2-thioxoimidazolidin-1-yl)benzoate]	168 to 170	95 ± 4.2	532 ± 58.2
		COc1ccc(N2C(=S)N(c3ccc(C#N)c(C(F)(F)F)c3)C(=O)C2(C)CO)cc1 (stereo not drawn) [6f, 4-(4-(hydroxymethyl)-3-(4-methoxyphenyl)-4-methyl-5-oxo-2-thioxoimidazolidin-1-yl)-2-(trifluoromethyl)benzonitrile]	183 to 185	89 ± 3.7	286 ± 29.5
139 ± 28.1	81.64 ± 5.92	CN1CCC(Oc2ccc(N3C(=S)N(c4cnc(C#N)c(C(F)(F)F)c4)C(=O)C3(C)CO)cc2)CC1 (stereo not drawn) [19d, 5-(4-(hydroxymethyl)-4-methyl-3-(4-((1-methylpiperidin-4-yl)oxy)phenyl)-5-oxo-2-thioxoimidazolidin-1-yl)-3-(trifluoromethyl)picolinonitrile]	119 to 121		
		CC(=O)Nc1ccc(N2C(=S)N(c3ccc(C#N)c(C(F)(F)F)c3)C(=O)C2(C)CO)cc1 (stereo not drawn) [compound 9, N-(4-(3-(4-cyano-3-(trifluoromethyl)phenyl)-5-(hydroxymethyl)-5-methyl-4-oxo-2-thioxoimidazolidin-1-yl)phenyl)acetamide]	126 to 128	95 ± 3.1	939 ± 124
		CC1(CO)C(=O)N(c2ccc(C#N)c(C(F)(F)F)c2)C(=S)N1c1ccc([N+](=O)[O-])cc1 (stereo not drawn) [6h, 4-(4-(hydroxymethyl)-4-methyl-3-(4-nitrophenyl)-5-oxo-2-thioxoimidazolidin-1-yl)-2-(trifluoromethyl)benzonitrile]	206 to 208		79600
		CC1(CO)C(=O)N(c2ccc(C#N)c(C(F)(F)F)c2)C(=O)N1c1ccc(Cl)cc1 (stereo not drawn) [7d, 4-(3-(4-chlorophenyl)-4-(hydroxymethyl)-4-methyl-2,5-dioxoimidazolidin-1-yl)-2-(trifluoromethyl)benzonitrile]	152 to 154	94 ± 9.7	68.6 ± 22.4
		CC1(CO)C(=O)N(c2ccc(C#N)c(C(F)(F)F)c2)C(=S)N1c1ccc(C#N)cc1 (stereo not drawn) [6g, 4-(3-(4-cyanophenyl)-4-(hydroxymethyl)-4-methyl-5-oxo-2-thioxoimidazolidin-1-yl)-2-(trifluoromethyl)benzonitrile]	234 to 236	102 ± 15.5	338 ± 44.7
		CC1(CO)C(=O)N(c2ccc(C#N)c(C(F)(F)F)c2)C(=O)N1c1ccc([N+](=O)[O-])cc1 (stereo not drawn) [7h, 4-(4-(hydroxymethyl)-4-methyl-3-(4-nitrophenyl)-2,5-dioxoimidazolidin-1-yl)-2-(trifluoromethyl)benzonitrile]	160 to 162	93 ± 9.3	48.9 ± 12.7
		CC1(CO)C(=O)N(c2ccc(C#N)c(C(F)(F)F)c2)C(=O)N1c1ccc(Br)cc1 (stereo not drawn) [7e, 4-(3-(4-bromophenyl)-4-(hydroxymethyl)-4-methyl-2,5-dioxoimidazolidin-1-yl)-2-(trifluoromethyl)benzonitrile]	102 to 104	95 ± 11.2	84.2 ± 37.1
903 ± 602	55.46 ± 14.74	CNC(=O)c1ccc(N2C(=S)N(c3cnc(C#N)c(C(F)(F)F)c3)C(=O)C2(C)CO)cc1F (stereo not drawn) [19c, 4-(3-(6-cyano-5-(trifluoromethyl)pyridin-3-yl)-5-(hydroxymethyl)-5-methyl-4-oxo-2-thioxoimidazolidin-1-yl)-2-fluoro-N-methylbenzamide]	127 to 129		
		CC(=O)Nc1ccc(N2C(=O)N(c3ccc(C#N)c(C(F)(F)F)c3)C(=O)C2(C)CO)cc1 (stereo not drawn) [compound 10, N-(4-(3-(4-cyano-3-(trifluoromethyl)phenyl)-5-(hydroxymethyl)-5-methyl-2,4-dioxoimidazolidin-1-yl)phenyl)acetamide]	124 to 126	84 ± 8.6	> 5000
		CC1(CO)C(=O)N(c2ccc(C#N)c(C(F)(F)F)c2)C(=O)N1c1ccc(F)cc1 (stereo not drawn) [7c, 4-(3-(4-fluorophenyl)-4-(hydroxymethyl)-4-methyl-2,5-dioxoimidazolidin-1-yl)-2-(trifluoromethyl)benzonitrile]	208 to 210	94 ± 14.6	67.3 ± 15.5
		CC1(CO)C(=O)N(c2ccc(C#N)c(C(F)(F)F)c2)C(=O)N1c1ccccc1 (stereo not drawn) [7a, 4-(4-(hydroxymethyl)-4-methyl-2,5-dioxo-3-phenylimidazolidin-1-yl)-2-(trifluoromethyl)benzonitrile]	187 to 189	101 ± 15.1	94.8 ± 12.8
		CC1(CO)C(=O)N(c2ccc(C#N)c(C(F)(F)F)c2)C(=S)N1c1ccc(Cl)cc1 (stereo not drawn) [6d, 4-(3-(4-chlorophenyl)-4-(hydroxymethyl)-4-methyl-5-oxo-2-thioxoimidazolidin-1-yl)-2-(trifluoromethyl)benzonitrile]	205 to 207	96 ± 3.8	79.3 ± 13.2
		Cc1ccc(N2C(=O)N(c3ccc(C#N)c(C(F)(F)F)c3)C(=O)C2(C)CO)cc1 (stereo not drawn) [7b, 4-(4-(hydroxymethyl)-4-methyl-2,5-dioxo-3-(p-tolyl)imidazolidin-1-yl)-2-(trifluoromethyl)benzonitrile]	156 to 158	95 ± 12.3	115 ± 17.6
		CC1(CO)C(=O)N(c2ccc(C#N)c(C(F)(F)F)c2)C(=O)N1c1ccc(C#N)cc1 (stereo not drawn) [7g, 4-(3-(4-cyanophenyl)-4-(hydroxymethyl)-4-methyl-2,5-dioxoimidazolidin-1-yl)-2-(trifluoromethyl)benzonitrile]		98 ± 11.6	61 ± 6.1
		COC(=O)c1ccc(N2C(=O)N(c3ccc(C#N)c(C(F)(F)F)c3)C(=O)C2(C)CO)cc1 (stereo not drawn) [7j, methyl 4-(3-(4-cyano-3-(trifluoromethyl)phenyl)-5-(hydroxymethyl)-5-methyl-2,4-dioxoimidazolidin-1-yl)benzoate]	139 to 141	96 ± 10.8	139 ± 36.2
